Measured values reported in ChEMBL document CHEMBL1201862, “PubChem BioAssay data set” (2004).
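48-hour exposure; five concentrations; linearly interpolated endpoints. At the GI50, growth is halved.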 Activity calls are given as the source filed them. No stated cut-off is given here; in the data, active = GI50 up to about 1.1 µM and inactive = higher.

Assays:
Assay in all cases: NCI anticancer screen, dose series, 48 h
SF-268 = tested on: SF-268
SN12C = tested on: SN12C
OVCAR-5 = tested on: OVCAR-5
ACHN = tested on: ACHN
CAKI-1 = tested on: CAKI-1
M14 = tested on: M14
MDA-N = tested on: MDA-N
SF-295 = tested on: SF-295
T47D = tested on: T47D
HOP-62 = tested on: HOP-62
UO-31 = tested on: UO-31
KM12 = tested on: KM12
SNB-75 = tested on: SNB-75
TK-10 = tested on: TK-10
SK-MEL-28 = tested on: SK-MEL-28
HT-29 = tested on: HT-29
NCI-H23 = tested on: NCI-H23
IGROV-1 = tested on: IGROV-1
SR = tested on: SR

Measured: GI50

C[C@H](O)C1CC(Cn2nnc3c(N)ncnc32)C1(C)C (some centres not stated)
inactive: SF-268 > 100 µM | SN12C > 100 µM | OVCAR-5 > 100 µM | ACHN > 100 µM | CAKI-1 > 100 µM | M14 > 100 µM | MDA-N > 100 µM | SF-295 > 100 µM | T47D > 100 µM | HOP-62 > 100 µM | UO-31 > 100 µM | KM12 > 100 µM | SNB-75 > 100 µM | TK-10 > 100 µM | SK-MEL-28 > 100 µM

CC1(C)CC(=O)C2=C(C1)OC1=C(CC(C)(C)CC1=O)C2c1ccccc1Cl (configuration not stated)
inactive: SF-268 > 100 µM | SN12C > 100 µM | OVCAR-5 > 100 µM | HT-29 > 100 µM | ACHN > 100 µM | CAKI-1 > 100 µM | M14 > 100 µM | SF-295 > 100 µM | T47D > 100 µM | HOP-62 59.2 µM | NCI-H23 > 100 µM | IGROV-1 > 100 µM | UO-31 1.94 µM | SR > 100 µM | SNB-75 > 100 µM | SK-MEL-28 > 100 µM

Cn1cnnc1Sc1c([N+](=O)[O-])ncn1C
inactive: SF-268 > 100 µM | SN12C > 100 µM | OVCAR-5 > 100 µM | HT-29 > 100 µM | ACHN > 100 µM | CAKI-1 > 100 µM | M14 > 100 µM | SF-295 > 100 µM | HOP-62 > 100 µM | NCI-H23 84.7 µM | IGROV-1 > 100 µM | UO-31 > 100 µM | KM12 > 100 µM | SR 26.5 µM | SNB-75 > 100 µM | TK-10 > 100 µM | SK-MEL-28 36.9 µM

CC1(C)[C@@H](Cn2cc(I)c(=O)[nH]c2=O)CC[C@@]1(C)CO
inactive: SF-268 > 100 µM | SN12C > 100 µM | OVCAR-5 > 100 µM | ACHN > 100 µM | CAKI-1 > 100 µM | M14 > 100 µM | MDA-N > 100 µM | SF-295 > 100 µM | T47D > 100 µM | HOP-62 > 100 µM | UO-31 > 100 µM | KM12 > 100 µM | SNB-75 40.3 µM | TK-10 > 100 µM | SK-MEL-28 > 100 µM

N#CCCN(CCC#N)c1ccc(/C=C(/NC(=O)c2cc([N+](=O)[O-])ccc2Cl)C(=O)N=[N+]=[N-])cc1
inactive: SF-268 > 100 µM | SN12C > 100 µM | OVCAR-5 > 100 µM | HT-29 > 100 µM | ACHN > 100 µM | CAKI-1 > 100 µM | M14 > 100 µM | SF-295 > 100 µM | HOP-62 > 100 µM | NCI-H23 > 100 µM | IGROV-1 > 100 µM | UO-31 > 100 µM | KM12 > 100 µM | SR > 100 µM | SNB-75 > 100 µM | TK-10 > 100 µM | SK-MEL-28 > 100 µM

N#CC(C(=O)/C(=N\NC(N)=O)C(C#N)c1ccccc1)c1ccccc1 (configuration not stated)
inactive: SF-268 > 100 µM | SN12C > 100 µM | OVCAR-5 > 100 µM | HT-29 > 100 µM | ACHN > 100 µM | CAKI-1 > 100 µM | M14 > 100 µM | SF-295 > 100 µM | HOP-62 > 100 µM | NCI-H23 > 100 µM | IGROV-1 > 100 µM | UO-31 > 100 µM | KM12 > 100 µM | SR > 100 µM | SNB-75 > 100 µM | TK-10 > 100 µM | SK-MEL-28 > 100 µM

COP(=O)(Cc1ccc(/C=C/C#N)o1)OC
inactive: SF-268 > 100 µM | HT-29 > 100 µM | M14 > 100 µM | T47D > 100 µM | HOP-62 > 100 µM | NCI-H23 > 100 µM | IGROV-1 > 100 µM | KM12 > 100 µM | SR > 100 µM | SNB-75 > 100 µM | TK-10 > 100 µM | SK-MEL-28 > 100 µM

O=C1C2C(C(=O)N1c1ccccc1)C1(Br)c3ccccc3C2(Br)C2C(=O)N(c3ccccc3)C(=O)C21 (configuration not stated)
inactive: SF-268 27.7 µM | SN12C > 31.6 µM | OVCAR-5 > 31.6 µM | HT-29 27.8 µM | ACHN 18.1 µM | CAKI-1 64 µM | M14 > 31.6 µM | SF-295 > 100 µM | HOP-62 > 10 µM | NCI-H23 17.6 µM | IGROV-1 > 31.6 µM | UO-31 17.5 µM | KM12 16.6 µM | SR > 10 µM | SNB-75 13 µM | TK-10 > 31.6 µM | SK-MEL-28 > 31.6 µM

CC1=C/C(=N\OCC(=O)O)CC(c2ccc(C(C)C)cc2)C1 (configuration not stated)
inactive: SN12C 60.1 µM | OVCAR-5 > 100 µM | HT-29 16.6 µM | CAKI-1 > 100 µM | M14 35.2 µM | MDA-N 34.5 µM | SF-295 39.8 µM | T47D 65.3 µM | IGROV-1 > 100 µM | KM12 48.5 µM | SR 28.1 µM
